Assay results taken from patent US8772250B2, “Compositions and methods for treating ischemia and ischemia-reperfusion injury” (Ischemix, LLC, priority 2010, dated 2014).
Read-outs that look alike come from different tables or passages of the source.

Assay: Pharmacokinetic evaluation in humans
Type: in vivo
Conditions: human; for clearance / Cmax / Vd / half-life / AUC(0-t) / AUC(0-inf): plasma
Protocol: Plasma and urine RLip-EA-OH concentrations were measured at BASi, Inc. (West Lafayette, Ind.) using a LC/MS/MS method with positive turbo ion spray, in the multiple reaction-monitoring mode. The quantifiable range for human plasma was 1.00 to 500 ng/mL and QC samples were included at 3.00, 75.0 and 375 ng/mL.
The PK population included subjects who received RLip-EA-OH and had ≧1 post-dose PK measurement. […] Plasma samples from 24 subjects (6 RLip-EA-OH subjects per cohort) were analyzed (Tables 16 and 17).

With `C[C@H](NC(=O)[C@H](CCC(=O)O)NC(=O)CCCC[C@@H]1CCSS1)C(=O)O` [RLip-EA-OH, N-(R)-lipoyl-L-glutamyl-L- alanine] the clearance (150 mg, compartmental, read-out: CL, Median (converted)) was 363 mL/min, the clearance (150 mg, compartmental, read-out: CL, Minimum, maximum) was 260 to 512 mL/min and the Cmax (150 mg, compartmental, read-out: Estimated Cmax, Mean (SD)) was 18100 ng/mL. For the same compound, the Cmax (150 mg, compartmental, read-out: Estimated Cmax, Median) was 18400 ng/mL, the Cmax (150 mg, compartmental, read-out: Estimated Cmax, Minimum, maximum) was 14200 to 20600 ng/mL and the Vd (150 mg, compartmental, read-out: Vss, Mean (SD)) was 13 L. For the same compound, the Vd (150 mg, compartmental, read-out: Vss, Median) was 13 L, the Vd (150 mg, compartmental, read-out: Vss, Minimum, maximum) was 9 to 17 L and the half-life (150 mg, compartmental, read-out: t1/2, Mean (SD) (converted)) was 108 min. For the same compound, the half-life (150 mg, compartmental, read-out: t1/2, Median (converted)) was 84 min, the half-life (150 mg, compartmental, read-out: t1/2, Minimum, maximum) was 66 to 198 min and the AUC(0-t) (150 mg, noncompartmental, read-out: AUC0-t, Mean (SD)) was 6980 ng·h/mL. It also gave an AUC(0-t) (150 mg, noncompartmental, read-out: AUC0-t, Median) of 6900 ng·h/mL, an AUC(0-t) (150 mg, noncompartmental, read-out: AUC0-t, Minimum, maximum) of 4970 to 9330 ng·h/mL and an AUC(0-inf) (150 mg, noncompartmental, read-out: AUCinf, Mean (SD)) of 6990 ng·h/mL. The AUC(0-inf) (150 mg, noncompartmental, read-out: AUCinf, Median) was 6920 ng·h/mL, the AUC(0-inf) (150 mg, noncompartmental, read-out: AUCinf, Minimum, maximum) was 4980 to 9340 ng·h/mL and the clearance (150 mg, noncompartmental, read-out: CL, Mean (SD) (converted)) was 372 mL/min. For the same compound, the clearance (150 mg, noncompartmental, read-out: CL, Median (converted)) was 363 mL/min, the clearance (150 mg, noncompartmental, read-out: CL, Minimum, maximum) was 268 to 502 mL/min and the Cmax (150 mg, noncompartmental, read-out: Cmax, Mean (SD)) was 17100 ng/mL. It also gave a Cmax (150 mg, noncompartmental, read-out: Cmax, Median) of 17000 ng/mL, a Cmax (150 mg, noncompartmental, read-out: Cmax, Minimum, maximum) of 14900 to 20000 ng/mL and a Vd (150 mg, noncompartmental, read-out: Vss, Mean (SD)) of 13.6 L. The Vd (150 mg, noncompartmental, read-out: Vss, Median) was 13.2 L, the Vd (150 mg, noncompartmental, read-out: Vss, Minimum, maximum) was 9.9 to 16.6 L and the half-life (150 mg, noncompartmental, read-out: t1/2, Mean (SD) (converted)) was 73.8 min. It also gave a half-life (150 mg, noncompartmental, read-out: t1/2, Median (converted)) of 75 min, a half-life (150 mg, noncompartmental, read-out: t1/2, Minimum, maximum) of 58.2 to 91.2 min and an AUC(0-inf) (300 mg, compartmental, read-out: AUCinf, Mean (SD)) of 16400 ng·h/mL. For the same compound, the AUC(0-inf) (300 mg, compartmental, read-out: AUCinf, Median) was 16400 ng·h/mL, the AUC(0-inf) (300 mg, compartmental, read-out: AUCinf, Minimum, maximum) was 11500 to 22600 ng·h/mL and the clearance (300 mg, compartmental, read-out: CL, Mean (SD) (converted)) was 323 mL/min. The clearance (300 mg, compartmental, read-out: CL, Median (converted)) was 305 mL/min, the clearance (300 mg, compartmental, read-out: CL, Minimum, maximum) was 222 to 435 mL/min and the Cmax (300 mg, compartmental, read-out: Estimated Cmax, Mean (SD)) was 46300 ng/mL. It also gave a Cmax (300 mg, compartmental, read-out: Estimated Cmax, Median) of 43400 ng/mL, a Cmax (300 mg, compartmental, read-out: Estimated Cmax, Minimum, maximum) of 31000 to 70100 ng/mL and a Vd (300 mg, compartmental, read-out: Vss, Mean (SD)) of 11 L. For the same compound, the Vd (300 mg, compartmental, read-out: Vss, Median) was 11 L, the Vd (300 mg, compartmental, read-out: Vss, Minimum, maximum) was 8 to 16 L and the half-life (300 mg, compartmental, read-out: t1/2, Mean (SD) (converted)) was 90 min. It also gave a half-life (300 mg, compartmental, read-out: t1/2, Median (converted)) of 72 min, a half-life (300 mg, compartmental, read-out: t1/2, Minimum, maximum) of 60 to 150 min and an AUC(0-t) (300 mg, noncompartmental, read-out: AUC0-t, Mean (SD)) of 16500 ng·h/mL. For the same compound, the AUC(0-t) (300 mg, noncompartmental, read-out: AUC0-t, Median) was 16500 ng·h/mL, the AUC(0-t) (300 mg, noncompartmental, read-out: AUC0-t, Minimum, maximum) was 11600 to 23100 ng·h/mL and the AUC(0-inf) (300 mg, noncompartmental, read-out: AUCinf, Mean (SD)) was 16500 ng·h/mL. The AUC(0-inf) (300 mg, noncompartmental, read-out: AUCinf, Median) was 16500 ng·h/mL, the AUC(0-inf) (300 mg, noncompartmental, read-out: AUCinf, Minimum, maximum) was 11600 to 23100 ng·h/mL and the clearance (300 mg, noncompartmental, read-out: CL, Mean (SD) (converted)) was 322 mL/min. For the same compound, the clearance (300 mg, noncompartmental, read-out: CL, Median (converted)) was 303 mL/min, the clearance (300 mg, noncompartmental, read-out: CL, Minimum, maximum) was 217 to 430 mL/min and the Cmax (300 mg, noncompartmental, read-out: Cmax, Mean (SD)) was 42200 ng/mL. For the same compound, the Cmax (300 mg, noncompartmental, read-out: Cmax, Median) was 42200 ng/mL, the Cmax (300 mg, noncompartmental, read-out: Cmax, Minimum, maximum) was 32000 to 58100 ng/mL and the Vd (300 mg, noncompartmental, read-out: Vss, Mean (SD)) was 11.7 L. For the same compound, the Vd (300 mg, noncompartmental, read-out: Vss, Median) was 11.1 L, the Vd (300 mg, noncompartmental, read-out: Vss, Minimum, maximum) was 8.9 to 15.1 L and the half-life (300 mg, noncompartmental, read-out: t1/2, Mean (SD) (converted)) was 87 min. For the same compound, the half-life (300 mg, noncompartmental, read-out: t1/2, Median (converted)) was 68.4 min, the half-life (300 mg, noncompartmental, read-out: t1/2, Minimum, maximum) was 59.4 to 141 min and the clearance (300 mg, read-out: CL (converted)) was 322 mL/min. For the same compound, the half-life (300 mg, read-out: mean terminal-phase t1/2 (converted)) was 87 min, the AUC(0-inf) (across doses 20 to 300 mg, read-out: AUCinf) was 583 to 16500 ng·h/mL and the half-life (at the mg dose, read-out: mean terminal-phase t1/2 (converted)) was 51.6 min. The Vd (decreased with increasing dose, read-out: Vss) was 12 to 18 L, the Vd (read-out: volume of distribution of the central compartment (Vc)) was about 6 L and the “V1, Mean (SD)” value (20 mg, compartmental) was 6.61 (3.20) L. The “V1, Median” value (20 mg, compartmental) was 6.13 L, the “% Excreted Unchanged, Mean (SD)” value (20 mg, noncompartmental) was 28.5 (9.6) % and the “% Excreted Unchanged, Median” value (20 mg, noncompartmental) was 31.0%. For the same compound, the “V1, Mean (SD)” value (60 mg, compartmental) was 6.62 (1.65) L, the “V1, Median” value (60 mg, compartmental) was 6.69 L and the “% Excreted Unchanged, Mean (SD)” value (60 mg, noncompartmental) was 39.1 (4.0) %. For the same compound, the “% Excreted Unchanged, Median” value (60 mg, noncompartmental) was 40.6%, the “V1, Mean (SD)” value (150 mg, compartmental) was 6.09 (1.42) L and the “V1, Median” value (150 mg, compartmental) was 5.86 L. The “% Excreted Unchanged, Mean (SD)” value (150 mg, noncompartmental) was 32.5 (13.9) %, the “% Excreted Unchanged, Median” value (150 mg, noncompartmental) was 33.3% and the “V1, Mean (SD)” value (300 mg, compartmental) was 4.91 (1.56) L. The “V1, Median” value (300 mg, compartmental) was 5.59 L, the “% Excreted Unchanged, Mean (SD)” value (300 mg, noncompartmental) was 43.6 (8.8) % and the “% Excreted Unchanged, Median” value (300 mg, noncompartmental) was 46.3%.
